Patent publication US5229373A, “Use of exogenous gangliosides as a protective factor against toxicity by antitumor drug vincristine” (Fidia S.p.A., priority 1986, dated 1993)
Read-outs that look alike come from different tables or passages of the source.

What was measured:
[1] = test system: 3T3, neuroblastoma, glioma; conditions: exogenous addition; cited from earlier work
[2] = test system: sarcoma S180; assay: Antitumoral effect of Vincristine with and without CRONASSIAL, sarcoma S180; type: in vivo, mouse; conditions: S180, host SN; VCR 0,5 mg/kg i.p. days 1-6
Method: Male Swiss Schneider mice weighing 27 g. were used for experiments on sarcoma S180.
This tumor has been transplanted into the same strain of mouse in this laboratory for over 10 years. The transplant was carried out by s.c.inoculation of 0.1 ml of a tumoral homogenate obtained by finely mincing viable tumoral tissue, passed repeatedly through a 26 gauge needle into a sterile Petri dish. 0.1 ml of Penicillin (20,000 u/ml) and streptomycin (20,000 u/ml) were added to the solution. 5 mg of Neomycin were also added.
(§1) A standard vial containing 1 mg of Vincristine was used. It was prepared with a suitable volume of diluting solution to give the final concentration required for injection into 0.1 ml/10 g. of body weight.
(§2) A solution of this substance, which is a mixture of four gangliosides, was prepared by adding a volume of sterile distilled water suffi- cient to give a concentration of 200 mg/kg in a volume of 0.2 ml. This dose is administered to mice weighing approximately 20 g.

[3] = test system: mouse; assay: Effect of gangliosides on acute Vincristine toxicity (acute lethality, single i.v. dose); type: in vivo; conditions: Vincristine 3.0 mg/kg e.v. alone
Method: The mice were subdivided into groups of not more than 8 in standard cages. Food and water were provided ad lib. The animals were housed in rooms under strictly controlled conditions.
1 mg of Vincristine was diluted to obtain the concentration necessary to inject 0.1 ml/10 g. body weight.
A solution of gangliosides was prepared by addition of sterile distilled water in a quantity sufficient to obtain a final concentration of 200 mg/kg in a volume of 0.2 ml. This dose was administrated to mice weighing about 20g.

[4] = Effect of ganglioside treatment on chronic Vincristine toxicity (lethality after sub-chronic pre-treatment or post-treatment); type: in vivo, mouse; conditions: mouse, in vivo, iv, Table 4, read-out: Mortality rate, %
Method: (§3) Male mice CD-1 (ICR) BR (Charles River, Italy) weighing 25-30 g were used for the whole experiment. The animals were housed in groups of 10 per cage and fed with standard laboratory chow and tap water ad libitum. The animals were housed at constant room temperature (21°±1° C.) and relative humidity (60%) with controlled cycles of light/dark (light from 8.00 a.m. to 8.00 p.m.).
(§4) Vincristine sulphate (Lilly) was dissolved in saline and injected i.v. in a dose volume of 10 ml/kg, whereas the gangliosides were solubilized in a phosphate buffer (0.01M; pH 7.5) containing 0.8% of NaCl and administered i.m. at a dose volume of 5 ml/kg.
(§5) The ganglioside mixture (or vehicle) was administered i.m. daily for 5 consecutive days at different doses (50, 100 and 200 mg/kg) and Vincristine was injected i.v. 5 hours after the last treatment with gangliosides (or vehicle) in doses of 2.4 and 2.6 mg/kg.
(§6) The ganglioside mixture (or vehicle) was administered i.m. in doses of 200 mg/kg 5 hours before i.v. treatment with Vincristine for 5 consecutive days
(§7) The doses of Vincristine were of 2.2, 2.4 and 2.6 mg/kg.
(§8) The mortality rate was estimated by the number of animals that died within the first 14 days of Vincristine treatment.
(§9) The statistical significance between mortality rates was assessed by means of Fisher's exact probability test.
(§10) The results of the tests are reported in Tables 3 and 4 and graphed in FIG. 1. On the basis of the mortality rate curve after administration of Vincristine, doses between 2 and 3 mg/kg were chosen for the investigation with gangliosides. The first experiment compared the effects of ganglioside treatment before and after Vincristine injection.
(§11) In the case of post-treatment, a single administration of gangliosides was given in order to exclude the possibility that the greater efficacy of pre-treatment with gangliosides in reducing Vincristine toxicity, might only be due to the last ganglioside injection.

[5] = test system: Male mice CD-1 (ICR) BR; assay: as above; type: in vivo, mouse; conditions: for Mortality rate: Table 3; for Mortality rate, No.: Table 4
Method: as §3, §4, §5, §6, §7, §8, §9, §10, §11

[6] = test system: melanoma B16; assay: Antitumoral effect of Vincristine with and without CRONASSIAL, melanoma B16; type: in vivo, mouse; conditions: B16, host C57B1; VCR 0,5 mg/kg i.p. days 1-4, 7-11
Method: Female C57 B1 mice weighing 20 g. were used for experiments on melanoma B16.
This tumor was prepared by inoculation in the same way as that used for sarcoma S180.
as §1, §2

[7] = test system: leukemia L1210; assay: Antitumoral effect of Vincristine with and without CRONASSIAL, leukemia L1210; type: in vivo, mouse
Method: Male BDF1 mice weighing 30 g. were used for experiments on leukemia L1210.
Spleens were removed from the animals 7 days after inoculation of L1210 cells and were then finely minced with isotonic saline 1:100. 0.1 ml of this spleen and leukemia L1210 cell suspension was then injected s.c. into the flank of each BDF1 mouse.
as §1, §2

[8] = test system: VCR-induced neuropathy; conditions: electrophysiology, studies in man; cited from earlier work
[9] = subchronic vehicle + VCR 2.4 mg/kg i.v.
[10] = subchronic vehicle + VCR 2.6 mg/kg i.v.

| Molecule | cell growth and contact inhibition [1] | Mean tumor weight [2] | No. Survivors at 30 days [3] | mortality at 336 h [4, 9] | mortality at 336 h [4, 10] | Mortality rate ([5]; vehicle + VCR 2.4 mg/kg i.v.) | Mortality rate ([5]; vehicle + VCR 2.6 mg/kg i.v.) | Mortality rate, No. [5, 9] | Mortality rate, No. [5, 10] | Mean tumor weight [6] | Mean survival time ([7]; L1210, host BDF1, VCR 1,0 mg/kg i.p. days 1-3) | average survival time ([7]; L1210, Vincristine alone) | type of VCR-induced neuropathy [8] |
| --- | --- | --- | --- | --- | --- | --- | --- | --- | --- | --- | --- | --- | --- |
| II^3 NeuAcGgOse4 Cer [GM1] | inhibits cell growth and induces contact inhibition |  |  |  |  |  |  |  |  |  |  |  |  |
| CC[C@]1(O)C[C@H]2CN(CCc3c([nH]c4ccccc34)[C@@](C(=O)OC)(c3cc4c(cc3OC)N(C=O)[C@H]3[C@@](O)(C(=O)OC)[C@H](OC(C)=O)[C@]5(CC)C=CCN6CC[C@]43[C@@H]65)C2)C1 [Vincristine] |  | 0,64 g | 2/8 | 38% | 60% | 7/10 | 5/10 | 19/50 | 30/50 | 1,46 g | 7,8 gg. | 7.8 days | dying-back type |
